The target in one assay is T1, human AMPK α1β1γ1 enzyme (Homo sapiens, UniProt Q13131+Q9Y478).
T1 construct: purchased Carna Biosciences, Inc
Put plainly: Evaluation of AMPK activator, Test Example 1 (mobility-shift kinase assay, FL-Peptide 7). It counts as biochemical. As to conditions: for EC150 (compound concentration showing 150% relative to the control (100%)): human AMPK α1β1γ1, 25° C., 2 hours, 0.2 mM ATP final; for Emax: read-out: Emax (maximum rate of increase in activity within the measurement range). As for the experimental part:
The obtained liquid was left to stand for 10 minutes.
The obtained liquid was allowed to react at 25° C. for 2 hours, and 10 μl of 20 mM EDTA was then added thereto to stop the reaction.
(§1) To detect phosphorylated fluorescent substrates, the reaction liquid was applied to a measuring device, LabChip EZ Reader II manufactured by Caliper Life Science, Inc., for detecting fluorescence by using differences in mobility due to differences in charge. The setting conditions for the device were pressure, −1.5 PSI; upstream voltage, −2250 V; downstream voltage, −400 V; post sample buffer sip time, 40 seconds; final delay, 120 seconds; and peak order, Product First.
(§2) A conversion rate was calculated from the peak heights of the resulting substrate and product. The conversion rate when not containing a compound was used as a control, and a concentration dependent curve was made by plotting the rate of increase in activity to the control at each concentration of a compound.

For another assay, the target named is T2, Human AMPK α2β2γ1 (Homo sapiens, UniProt O43741+P54646).
T2 construct: The full length cDNAs of human AMPK β2 (NM_005399.3) and human AMPK α2 (NM_006252.3) were inserted; the full length cDNA of human AMPK γ1 (NM_002733.3) had been inserted into pET28b(+); 6xHis (N); made in house; host or cells: Escherichia coli BL21 CodonPlus (DE3)-RIL (AMPK); BL21 Star (DE3) (CaMKKβ)
Put plainly: Evaluation of AMPK activator, Test Example 2 (CaMKK2-phosphorylated enzyme, mobility-shift kinase assay). It is filed as biochemical. The following applies: for EC150 (compound concentration showing 150% relative to the control (100%)): human AMPK α2β2γ1 phosphorylated by CaMKK2, 25° C., 2 hours; for Emax: human AMPK α2β2γ1 phosphorylated by CaMKK2, relative to control (100%), read-out: Emax (maximum rate of increase in activity within the measurement range). As to the method: The full length cDNAs of human AMPK β2 (NM_005399.3) and human AMPK α2 (NM_006252.3) were inserted into the MCS1 and MCS2 of the pETDuet-1 vector to prepare a human AMPK β2 and human AMPK α2 (6× His tag at the 5′ terminus) expressing plasmid. The plasmid was contransfected with an expression plasmid, in which the full length cDNA of human AMPK γ1 (NM_002733.3) had been inserted into pET28b(+), into BL21 CodonPlus (DE3)-RIL to obtain an expression strain. The expression strain was cultured in TB medium, followed by induction with 0.5 mM IPTG, and cultured at 25° C. for 3 hours and then harvested. After ultrasonication, supernatant was collected and applied to Histrap FF column (GE) and RESOUECE Q column (GE) to prepare 12.5 mg of purified sample containing three types of subunit from 1.8 L of broth.
An expression vector, in which the full length cDNA of human CAMKK β (NM_172226.1) had been inserted into pGEX-6P-3, was transfected into BL21 Star (DE3). The expression strain was cultured in TB medium, followed by induction with 0.5 mM IPTG, and cultured at 25° C. for 3 hours and then harvested. After ultrasonication, supernatant was collected and applied to GSTrap FF column (GE) to prepare 14 mg of GST-fused CAMKK β from 720 ml of broth.
Evaluation Method of an Activator for AMP-activated Protein Kinase (AMPK) (Test Example 2)
Thus, phosphorylation treatment was carried out as pretreatment.
Human AMPK α2β2γ1 in an amount to give a conversion rate of approximately 10% by reaction for 2 hours, and CaMKK2 in an amount capable of sufficiently imparting activity to AMPK for one hour were mixed in a buffer solution consisting of a 50 mM HEPES-NaOH buffer solution (pH 7.0), 100 mM NaCl, 5 mM magnesium chloride, 0.1% bovine serum albumin, 0.2 mM sodium orthovanadate(V), 1 mM ethylene glycol-bis(2-aminoethyl ether)-N,N,N′,N′-tetraacetic acid (EGTA), 5 mM disodium β-glycerophosphate, 1 mM dithiothreitol and 0.2 mM ATP, and the obtained liquid was left to stand at 25° C. for 1 to 1.5 hours to sufficiently phosphorylate AMPK.
After that, to the enzyme liquid, which had been subjected to phosphorylation treatment, a compound dissolved in DMSO was added so as to have a 1% DMSO concentration. The obtained liquid was left to stand for 10 minutes.
To the liquid, a substrate solution consisting of a 50 mM HEPES-NaOH buffer solution (pH 7.0), 100 mM NaCl, 10 mM magnesium chloride, 0.1% bovine serum albumin, 0.2 mM sodium orthovanadate(V), 1 mM ethylene glycol-bis(2-aminoethyl ether)-N,N,N′,N′-tetraacetic acid (EGTA), 5 mM disodium β-glycerophosphate, 2 mM dithiothreitol, 0.4 mM ATP and 3 μM FL-Peptide 7 (manufactured by Caliper Life Sciences, Inc.) was added in equal amount (10 μl in total). The obtained liquid was allowed to react at 25° C. for 2 hours, and 10 μl of 20 mM EDTA was then added thereto to stop the reaction.
as §1, §2

Setting [1] is: human AMPK α1β1γ1, relative to control (100%).

T2 sequence (P54646 whole entry): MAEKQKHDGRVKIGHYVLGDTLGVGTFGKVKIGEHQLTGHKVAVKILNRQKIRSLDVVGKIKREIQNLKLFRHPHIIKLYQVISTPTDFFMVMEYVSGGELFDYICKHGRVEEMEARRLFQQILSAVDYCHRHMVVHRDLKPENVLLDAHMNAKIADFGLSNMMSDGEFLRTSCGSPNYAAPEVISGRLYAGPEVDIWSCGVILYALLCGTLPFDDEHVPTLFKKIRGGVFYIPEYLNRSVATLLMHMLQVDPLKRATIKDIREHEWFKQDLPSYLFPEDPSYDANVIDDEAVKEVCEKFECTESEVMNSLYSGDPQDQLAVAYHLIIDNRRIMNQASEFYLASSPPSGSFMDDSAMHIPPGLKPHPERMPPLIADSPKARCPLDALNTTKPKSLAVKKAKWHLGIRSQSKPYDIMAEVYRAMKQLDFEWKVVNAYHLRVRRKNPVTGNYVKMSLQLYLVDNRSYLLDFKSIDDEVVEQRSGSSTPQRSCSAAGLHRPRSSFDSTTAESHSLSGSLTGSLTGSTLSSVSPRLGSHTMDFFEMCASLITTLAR
T2 sequence (O43741 whole entry): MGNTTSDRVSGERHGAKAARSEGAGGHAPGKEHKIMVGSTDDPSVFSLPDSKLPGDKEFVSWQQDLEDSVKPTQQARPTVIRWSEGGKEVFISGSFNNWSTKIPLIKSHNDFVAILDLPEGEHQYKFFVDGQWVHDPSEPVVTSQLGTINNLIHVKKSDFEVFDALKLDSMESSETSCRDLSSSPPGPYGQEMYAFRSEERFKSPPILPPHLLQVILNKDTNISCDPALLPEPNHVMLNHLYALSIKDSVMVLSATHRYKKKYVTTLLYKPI
T2 sequence (P54619 whole entry partner): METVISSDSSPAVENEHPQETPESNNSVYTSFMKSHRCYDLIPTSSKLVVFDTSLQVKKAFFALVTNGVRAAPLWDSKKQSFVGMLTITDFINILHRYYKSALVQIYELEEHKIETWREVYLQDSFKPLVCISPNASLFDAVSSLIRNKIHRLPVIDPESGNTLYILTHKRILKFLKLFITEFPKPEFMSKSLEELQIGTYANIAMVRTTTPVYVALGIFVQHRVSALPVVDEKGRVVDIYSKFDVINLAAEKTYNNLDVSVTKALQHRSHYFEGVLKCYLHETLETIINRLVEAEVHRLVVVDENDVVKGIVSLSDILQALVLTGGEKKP
T1 sequence (Q13131 10-559 limits assumed): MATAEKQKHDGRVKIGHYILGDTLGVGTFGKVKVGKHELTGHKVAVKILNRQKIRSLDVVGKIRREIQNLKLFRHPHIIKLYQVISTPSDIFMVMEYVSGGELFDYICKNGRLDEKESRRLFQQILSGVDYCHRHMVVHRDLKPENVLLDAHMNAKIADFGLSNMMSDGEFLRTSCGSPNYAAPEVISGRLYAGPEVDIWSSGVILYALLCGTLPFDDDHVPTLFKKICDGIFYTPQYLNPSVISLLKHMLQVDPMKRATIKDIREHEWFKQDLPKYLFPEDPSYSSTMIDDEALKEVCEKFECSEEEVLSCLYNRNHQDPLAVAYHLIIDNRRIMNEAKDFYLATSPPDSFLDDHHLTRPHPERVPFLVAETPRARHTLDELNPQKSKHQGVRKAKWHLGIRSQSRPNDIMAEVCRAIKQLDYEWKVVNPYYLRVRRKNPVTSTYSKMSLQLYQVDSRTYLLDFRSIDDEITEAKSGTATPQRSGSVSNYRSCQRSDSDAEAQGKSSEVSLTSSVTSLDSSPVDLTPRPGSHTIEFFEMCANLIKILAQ
T1 sequence (Q9Y478 whole entry): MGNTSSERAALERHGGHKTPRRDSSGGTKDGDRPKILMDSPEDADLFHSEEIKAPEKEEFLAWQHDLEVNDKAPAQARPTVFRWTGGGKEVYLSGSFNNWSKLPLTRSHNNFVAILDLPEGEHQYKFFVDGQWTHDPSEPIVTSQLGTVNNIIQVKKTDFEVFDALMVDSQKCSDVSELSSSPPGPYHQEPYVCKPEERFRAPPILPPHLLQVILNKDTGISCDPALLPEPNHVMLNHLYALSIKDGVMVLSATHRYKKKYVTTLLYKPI
T1 sequence (P54619 whole entry partner): as the sequence (P54619 whole entry partner) above

For `CC(=O)NC1CC=C(c2ccc(-c3nc4nc(O[C@H]5CC[C@H](CC(=O)O)CC5)[nH]c4cc3Cl)cc2)CC1` (stereo partly shown) [Compound I-2-76], the results for the “EC150 (compound concentration showing 150% relative to the control (100%))” value on human AMPK α1β1γ1 enzyme and on Human AMPK α2β2γ1 were 14 nM and 85 nM, respectively. The maximal effect (Emax) (in general, the greatest response seen or fitted, relative to the assay's reference) at human AMPK α1β1γ1 enzyme (setting [1]) was 232%; at Human AMPK α2β2γ1, 175%.
As to `CC(Oc1nc2nc(-c3ccc(N4CCCC4)cc3)c(Cl)cc2[nH]1)c1cc(O)no1` (stereo not shown) [Compound I-2-112], the “EC150 (compound concentration showing 150% relative to the control (100%))” value on human AMPK α1β1γ1 enzyme amounted to 25 nM; on Human AMPK α2β2γ1 it was 74 nM. Also, the figures for the Emax at human AMPK α1β1γ1 enzyme (setting [1]) and at Human AMPK α2β2γ1 were 246% and 269%, respectively.
For the compound `CN(C)C(=O)[C@H]1C[C@@H](Oc2nc3nc(-c4ccc(C5=CCC(C(=O)O)CC5)cc4)c(Cl)cc3[nH]2)C1` (stereo partly shown) [Compound I-2-129], the Emax at human AMPK α1β1γ1 enzyme (setting [1]) amounted to 276%; on Human AMPK α2β2γ1, 339%.
Turning to `CC(C)(C(=O)O)[C@]1(O)CC[C@@H](Oc2nc3nc(-c4ccc(N5CCOCC5)cc4)c(Cl)cc3[nH]2)CC1` [Compound I-3-24], the “EC150 (compound concentration showing 150% relative to the control (100%))” value at human AMPK α1β1γ1 enzyme was 0.79 nM. For the same compound, the “Emax (maximum rate of increase in activity within the measurement range)” value on human AMPK α1β1γ1 enzyme (setting [1]) worked out at 318%. At Human AMPK α2β2γ1, the “EC150 (compound concentration showing 150% relative to the control (100%))” value was determined as 11 nM and the Emax turned out to be 271%.
In the case of `CC(C)(C(=O)O)[C@]1(O)CC[C@@H](Oc2nc3nc(-c4ccc(N5CCCC5)cc4)c(Cl)cc3[nH]2)CC1` [Compound I-3-30], the “EC150 (compound concentration showing 150% relative to the control (100%))” value at human AMPK α1β1γ1 enzyme is on record as 0.49 nM; on Human AMPK α2β2γ1 it was 12 nM. Also, the Emax stood at 345% at human AMPK α1β1γ1 enzyme (setting [1]) and 271% on Human AMPK α2β2γ1.
`CC(C)(C(=O)O)C1CCC(Oc2nc3nc(-c4ccc(C5(CO)CC5)cc4)c(Cl)cc3[nH]2)CC1` (stereo not shown) [Compound I-3-37]: the “EC150 (compound concentration showing 150% relative to the control (100%))” value at human AMPK α1β1γ1 enzyme came out at 5.6 nM; on Human AMPK α2β2γ1, 5 nM. Moreover, the Emax at human AMPK α1β1γ1 enzyme (setting [1]) came out at 257%; at Human AMPK α2β2γ1, 237%.
For `CC(C)(C(=O)O)[C@H]1CC[C@H](Oc2nc3nc(-c4c(F)cc(N5CCOCC5)cc4F)ccc3[nH]2)CC1` [Compound I-3-40] the same measures were 23 nM, 69 nM, 244% and 228%.
For `CN(C)C(=O)[C@]1(O)CC[C@@H](Oc2nc3nc(-c4ccc(C5=CCC(C(=O)O)CC5)cc4)c(Cl)cc3[nH]2)CC1` (stereo partly shown) [Compound I-3-54] the same measures were 270 nM, 2.2 nM, 201% and 373%.
As to `CC(=O)NC1CC=C(c2ccc(-c3nc4nc(O[C@H]5CC[C@H](C(C)(C)CO)CC5)[nH]c4cc3Cl)cc2)CC1` (stereo partly shown) [Compound I-3-86], the “EC150 (compound concentration showing 150% relative to the control (100%))” value on human AMPK α1β1γ1 enzyme is 23 nM; at Human AMPK α2β2γ1 it was 11 nM. Besides, the Emax came out at 277% on human AMPK α1β1γ1 enzyme (setting [1]) and 259% on Human AMPK α2β2γ1.
The matching figures for `CC(C)(C(=O)O)[C@H]1CC[C@H](Oc2nc3nc(-c4ccc(C5=CCN(C(=O)CO)CC5)cc4)c(Cl)cc3[nH]2)CC1` [Compound I-3-90]: 17 nM, 21 nM, 320% and 274%.
The matching figures for `CC(C)(C(=O)O)[C@]1(F)CC[C@@H](Oc2nc3nc(-c4ccc(N5CCOCC5)cc4)c(Cl)cc3[nH]2)CC1` [Compound I-3-99]: 3.7 nM, 15 nM, 310% and 261%.
For `NC(=O)c1ccc(-c2ccc(-c3nc4nc(O[C@H]5CC[C@H](C(=O)O)CC5)[nH]c4cc3Cl)cc2)cc1` [Compound I-3-120] the same measures were 28 nM, 7 nM, 216% and 262%.

Values taken from patent publication US10093670B2, “Azabenzimidazole derivative having AMPK-activating activity” (Shionogi & Co., Ltd., priority 2011, dated 2018).
